From patent US20170190744A1 (Vicuron Pharmaceuticals, Inc., priority 2015, published 2017)
In brackets after ≈: the same amount, converted by molar mass. Like-named read-outs stand apart in the source and are kept apart here.

Columns and labels:
G 16440 E coli iperperm = assay: MIC (microbiological activity); assay type: cell-based; conditions: repeat determinations
S. aureus [1] = assay: MIC of study organisms (NCCLS microdilution); assay type: cell-based; conditions: for MBC: Staphylococcus aureus
Experimental: (§1) MICs were determined in MHB by standard NCCLS microdilution techniques. […] All MICs were performed at least in duplicate.

S. pneumoniae [2] = assay: MIC of study organisms (NCCLS microdilution); assay type: cell-based; conditions: five pneumococcal organisms
Experimental: as §1

S. aureus [3] = assay: Phase II SSTI trial: microbiologic response, S. aureus; assay type: in vivo, human
Experimental: (§2) Microbiological outcome, a secondary efficacy variable, was assessed in the subpopulation of patients who had microbiologically documented SSTI (i.e., at least one identified baseline pathogen). A microbiologic response was assessed for each Gram-positive pathogen identified at baseline (i.e., eradication, presumed eradication, persistence, presumed persistence). For patients for whom follow-up cultures were not performed, the microbiologic responses for baseline pathogens were presumed on the basis of the clinical response. Microbiologic response by patient at the EOT and FU visits was graded as success (i.e., all Gram-positive organisms eradicated or presumed eradicated) or failure (i.e., at least one Gram-positive organism persisted or presumed to have persisted, multiple pathogens with partial eradication). At both the EOT and FU visits, colonization and superinfection were assessed. At the FU visit, a patient's bacteriological response could also include recurrence.

S. pneumoniae [4] = assay: Murine thigh-infection model; assay type: in vivo, mice; conditions: for 1 Log Kill mg/kg/72 h / 2 Log Kill mg/kg/72 h: q 72 h regimen; for 1 log kill dose / 2 log kill dose: total dose over 6 days
Experimental: Each point represents the mean of 4 thighs. Five dose levels, ranging 16-fold were used.
Five different doses (two-fold increases) were used. Study against S. aureus utilized total dose (mg/kg/6 d) levels ranging from 30 to 480 mg/kg/6 d. […] Each point represents the mean of 4 thighs.
Each point represents the mean of four thighs.
Each point represents the mean value from 4 thighs. The static dose, and the doses associated with a 1 and 2 log kill were calculated from the parameters estimated by non-linear regression using the Hill equation.

[5] = system: methicillin-resistant S. aureus (MRSA); assay: Phase II SSTI trial: response in patients with MRSA (MITT); assay type: in vivo, human; conditions: MITT population
Experimental: The effectiveness of the three treatment regimens was determined by assessing the patients' clinical response and the documented or presumed microbiological responses. The primary efficacy endpoint was clinical response at the follow-up visit for the clinically evaluable population. Clinical response, for both EOT and FU visits, was categorized as success (cure or improvement) or failure (including indeterminate results). Patients classified as successes must not have received additional systemic antibacterial treatment for their infection. Failure was defined as persistence of one or more local or systemic signs and symptoms of SSTI such that treatment with new or additional systemic antibacterial agents was required for the SSTI.
as §2

[6] = in vivo
Experimental: Safety was evaluated by the collection and analysis of data on adverse events (AEs), clinical laboratory tests, physical examinations, vital signs, and ECGs.

P450 = P450 induction after administration to rats; assay type: in vivo
MRSA Staph. aureus 3817 = assay: Staph. aureus murine septicaemia, ED50; assay type: in vivo; conditions: Staphylococcus aureus, sc, 10 min
[7] = system: Gram-positive isolates, including MRSA; assay: Dalbavancin MIC of baseline Gram-positive pathogens (SSTI trial); assay type: cell-based; conditions: for Dalbavancin MIC, Miscellaneous Streptococcus and nontypeable strains: baseline isolates, MITT
Description: The most common pathogen was S. aureus.

[8] = Pharmacokinetics and renal excretion in healthy subjects; assay type: in vivo, human; conditions: single 1000 mg IV
Experimental: Blood samples were drawn into heparinized tubes and centrifuged. Plasma was separated and stored frozen at −20° C. until time of assay. Plasma and urine samples were assayed for dalbavancin using validated LC/MS/MS methods. […] The peak concentration (Cmax) values were obtained directly from the observed data. The area under the plasma concentration-time curve (AUC) was calculated using the linear trapezoidal rule. Clearance (CL) was computed as dose/AUC. The elimination half life (t1/2) was estimated by linear regression of the log-linear portion of the log concentration versus time curve. Estimates of the volume of distribution (VZ) was calculated using the regression parameters, while the volume of distribution at steady state (Vss) was calculated from the area under the first moment curve (AUMC) multiplied by the dose and divided by AUC. The cumulative amount of dalbavancin excreted in urine was determined as the integrand of the urine excretion rate (AURC). CLR, or renal clearance, was calculated as the ratio: CLR=AURC/AUC.

[9] = Phase II SSTI trial: safety (adverse events); set-up: species or system human; conditions: in vivo
Experimental: Each patient who received at least one dose of study drug (ITT population) was evaluated for drug safety through monitoring of adverse events (AE), including abnormal clinical laboratory test results and vital signs. AE were rated by the investigator as to their severity (mild, moderate, severe, life-threatening), and by the relationship to the study drug (not related, unlikely related, possibly related, or probably related).

S. aureus [10] = assay: MIC in broth, serum, serum ultrafiltrate and albumin (protein binding); assay type: cell-based; conditions: Staphylococcus aureus
Description: This degree of binding was considered in subsequent pharmacodynamic analyses. The degree of binding in human serum would be estimated to be 96%.

[11] = system: 3797 S aureus clin. Isolate GISA; assay: MIC (microbiological activity); assay type: cell-based
[12] = Plasma pharmacokinetics in thigh-infected neutropenic mice; conditions: 2.5-80 mg/kg intraperitoneal
Experimental: Neutropenia in this and all other studies was produced by injections of cyclophosphamide, 150 mg/kg 4 days prior to study, 100 mg/kg 1 day prior to study and 100 mg/kg every 48 h after start of infection until end of study. […] Doses of 2.5, 5, 10, 20, 40, and 80 mg/kg were studied. Drug was administered by intraperitoneal injection of 0.2 ml volume. Blood was removed from groups of three mice by retroorbital aspiration into heparinized capillary tubes at 0.5, 1, 2, 4, 6, 24, 48, 72, and 96 hours after dosing. […] AUC was calculated by the trapezoidal rule from mean concentrations.

**Q.** With `CN[C@H]1C(=O)N[C@@H]2Cc3ccc(cc3)Oc3cc4cc(c3O[C@@H]3O[C@H](C(=O)O)[C@@H](O)[C@H](O)[C@H]3NC(=O)CCCCCCCCC(C)C)Oc3ccc(cc3Cl)[C@@H](O)[C@@H]3NC(=O)[C@H](NC(=O)[C@@H]4NC(=O)[C@@H](NC2=O)c2cc(cc(O)c2Cl)Oc2cc1ccc2O)c1ccc(O)c(c1)-c1c(O[C@H]2O[C@H](CO)[C@@H](O)[C@H](O)[C@@H]2O)cc(O)cc1[C@@H](C(=O)NCCCN(C)C)NC3=O` [Dalbavancin] as the compound, how does the MIC (G 16440 E coli iperperm) read?
**A.** 16 µg/mL (≈ 8.81 µM)

**Q.** What about the MBC (S. aureus [1]; S. aureus strain 307109) of the same compound?
**A.** 0.12 µg/mL

**Q.** And the MBC (S. aureus [1]; SA31005)?
**A.** 0.12 µg/mL

**Q.** And the MIC range (S. aureus [1]; six S. aureus isolates)?
**A.** 0.06 to 0.12 µg/mL

**Q.** What about the MIC range (S. pneumoniae [2]) of the same compound?
**A.** 0.004 to 0.03 µg/mL

**Q.** And the “S. aureus eradication rate at FU” value (S. aureus [3]; single-dose dalbavancin)?
**A.** 50%

**Q.** What about the “S. aureus eradication rate at FU” value (S. aureus [3]; two-dose dalbavancin) of the same compound?
**A.** 90%

**Q.** What about the “1 Log Kill mg/kg/72 h” value (S. pneumoniae [4]; Mean ± SD of S. pneumoniae strains) of the same compound?
**A.** 0.93 ± 0.24 mg/kg/72 h

**Q.** And the “24 h AUC/MIC values lower with every 72 h than every 24 h dosing” value (S. pneumoniae [4]; S. pneumoniae and S. aureus, static dose, 1 and 2 log kill)?
**A.** 1.3 to 2.4 fold

**Q.** And the “1 Log Kill mg/kg/72 h” value (S. pneumoniae [4]; SP1199, 6 days of therapy)?
**A.** 0.85 mg/kg/72 h

**Q.** What about the “2 Log Kill mg/kg/72 h” value (S. pneumoniae [4]; SP1199, 6 days of therapy) of the same compound?
**A.** 0.99 mg/kg/72 h

**Q.** What about the “1 Log Kill mg/kg/72 h” value (S. pneumoniae [4]; SP1325, 6 days of therapy) of the same compound?
**A.** 0.99 mg/kg/72 h

**Q.** And the “1 Log Kill mg/kg/72 h” value (S. pneumoniae [4]; SP1396, 6 days of therapy)?
**A.** 0.61 mg/kg/72 h

**Q.** What about the “2 Log Kill mg/kg/72 h” value (S. pneumoniae [4]; SP1396, 6 days of therapy) of the same compound?
**A.** 0.69 mg/kg/72 h

**Q.** What about the “1 log kill dose” value (S. pneumoniae [4]; SP10813, q 12 h) of the same compound?
**A.** 2.8 mg/kg

**Q.** And the “2 log kill dose” value (S. pneumoniae [4]; SP10813, q 12 h)?
**A.** 3.5 mg/kg

**Q.** What about the “1 log kill dose” value (S. pneumoniae [4]; SP10813, q 24 h) of the same compound?
**A.** 1.54 mg/kg

**Q.** What about the “2 log kill dose” value (S. pneumoniae [4]; SP10813, q 24 h) of the same compound?
**A.** 1.75 mg/kg

**Q.** What about the “1 log kill dose” value (S. pneumoniae [4]; SP10813, q 72 h) of the same compound?
**A.** 0.77 mg/kg

**Q.** What about the “2 log kill dose” value (S. pneumoniae [4]; SP10813, q 72 h) of the same compound?
**A.** 0.82 mg/kg

**Q.** And the “1 Log Kill mg/kg/72 h” value (S. pneumoniae [4]; SP10813, 6 days of therapy)?
**A.** 0.77 mg/kg/72 h

**Q.** What about the “2 Log Kill mg/kg/72 h” value (S. pneumoniae [4]; SP10813, 6 days of therapy) of the same compound?
**A.** 0.82 mg/kg/72 h

**Q.** And the “drop in cfu over the 6 day study” value (S. pneumoniae [4]; all strains)?
**A.** > 4 log10

**Q.** What about the “less drug required against pneumococci than S. aureus, based upon 24 h AUC/MIC” value (S. pneumoniae [4]; every 24 h dosing) of the same compound?
**A.** 12 to 23 fold

**Q.** And the “free drug 24 h AUC/MIC associated with a static effect” value (S. pneumoniae [4]; every 72 h dosing, 6 days)?
**A.** 7.2±4.5

**Q.** What about the “free drug AUC/MIC over the 6 days of therapy required for efficacy” value (S. pneumoniae [4]; net static effect, 1 or 2 log kill) of the same compound?
**A.** ~100

**Q.** And the “reduction in doses necessary for efficacy in presence of neutrophils” value (S. pneumoniae [4]; normal vs neutropenic mice, 24-hour dosing, not statistically significant)?
**A.** 1.7- to 2.1 fold

**Q.** What about the “clinical success rate at FU in patients with MRSA” value ([5]; single-dose dalbavancin) of the same compound?
**A.** 50%

**Q.** What about the “rate of eradication for MRSA” value ([5]; single-dose dalbavancin) of the same compound?
**A.** 50%

**Q.** What about the “clinical success rate at FU in patients with MRSA” value ([5]; two-dose dalbavancin) of the same compound?
**A.** 80%

**Q.** And the “rate of eradication for MRSA” value ([5]; two-dose dalbavancin)?
**A.** 80%

**Q.** What about the “average difference of effect on QTc values versus vancomycin group” value ([6]; human) of the same compound?
**A.** 7 ms

**Q.** And the “impact on heart rate, atrioventricular conduction or intra-ventricular conduction” value [6]?
**A.** did not exhibit any impact

**Q.** What about the P450 induction (P450) of the same compound?
**A.** did not induce any P450 activity

**Q.** What about the ED50 (MRSA Staph. aureus 3817) of the same compound?
**A.** 0.7 mg/kg

**Q.** And the “MICs against Gram-positive isolates, including MRSA (range)” value ([7]; baseline isolates of the SSTI trial)?
**A.** 0.016 to 0.25 mg/L

**Q.** And the “Dalbavancin MIC, Miscellaneous Streptococcus and nontypeable strains” value ([7]; Single dose Dalbavancin (1100 mg) arm)?
**A.** (0.016)

**Q.** What about the “Dalbavancin MIC, Miscellaneous Streptococcus and nontypeable strains” value ([7]; Two-dose Dalbavancin (1000/500 mg) arm) of the same compound?
**A.** (0.016)

**Q.** What about the t1/2 [8] of the same compound?
**A.** 220 to 288 h

**Q.** What about the “premature discontinuation of treatment due to an AE” value [9] of the same compound?
**A.** No dalbavancin-treated patient discontinued treatment prematurely due to an AE

**Q.** What about the MIC (S. aureus [10]; MRSA, read-out: MIC 95% Human Albumin, S. aureus strain MRSA) of the same compound?
**A.** 8 µg/mL (≈ 4.4 µM)

**Q.** What about the MIC (S. aureus [10]; MRSA, read-out: MIC 95% Human Serum, S. aureus strain MRSA) of the same compound?
**A.** 8 µg/mL (≈ 4.4 µM)

**Q.** And the MIC (S. aureus [10]; MRSA, read-out: MIC 95% Mouse Serum Ultrafiltrate, S. aureus strain MRSA)?
**A.** 0.5 µg/mL (≈ 0.275 µM)

**Q.** What about the MIC (S. aureus [10]; MRSA, read-out: MIC 95% Mouse Serum, S. aureus strain MRSA) of the same compound?
**A.** 32 µg/mL (≈ 17.6 µM)

**Q.** What about the MIC (S. aureus [10]; human serum and albumin) of the same compound?
**A.** 8 µg/mL (≈ 4.4 µM)

**Q.** What about the MIC (S. aureus [10]; mouse serum ultrafiltrate) of the same compound?
**A.** 0.5 µg/mL (≈ 0.275 µM)

**Q.** And the MIC (S. aureus [10]; read-out: MIC 95% Human Albumin, S. aureus strain 25923)?
**A.** 8 µg/mL (≈ 4.4 µM)

**Q.** And the MIC (S. aureus [10]; read-out: MIC 95% Human Serum, S. aureus strain 25923)?
**A.** 8 µg/mL (≈ 4.4 µM)

**Q.** And the MIC (S. aureus [10]; read-out: MIC 95% Mouse Serum Ultrafiltrate, S. aureus strain 25923)?
**A.** 0.5 µg/mL (≈ 0.275 µM)

**Q.** What about the MIC (S. aureus [10]; read-out: MIC 95% Mouse Serum, S. aureus strain 25923) of the same compound?
**A.** 32 µg/mL (≈ 17.6 µM)

**Q.** And the MIC (S. aureus [10]; read-out: MIC (arithmetic), 95% mouse serum)?
**A.** 32 µg/mL (≈ 17.6 µM)

**Q.** What about the MIC [11] of the same compound?
**A.** 2 µg/mL (≈ 1.1 µM)

**Q.** And the half-life [12]?
**A.** 7.6 to 13.1 h
